Test [1] concerns LX-2. The test is described as follows: Antiproliferative activity against GPC3-negative human LX-2 cells assessed as cytotoxicity measured after 72 hrs by MTT assay. Type of test: functional, cell-based. The following applies: LX-2, 72 h. (Formazan colour is commonly taken as a measure of viable cells.)
Test [2] deals with HeLa. The experiment in a line: Antiproliferative activity against GPC3-negative human HeLa cells assessed as cytotoxicity measured after 72 hrs by MTT assay. The class given is functional, cell-based.
For test [3], the system named is Hep 3B2. The test is described as follows: Antiproliferative activity against GPC3-positive human Hep3B cells assessed as cytotoxicity measured after 72 hrs by MTT assay. The class given is functional, cell-based.
For test [4], the system named is Huh-7. The test is described as follows: Antiproliferative activity against GPC3-positive human Huh-7 cells assessed as cytotoxicity measured after 72 hrs by MTT assay. Type of test: functional, cell-based. The following applies: Huh-7, 72 h.
Test [5] addresses Glypican-3 (Homo sapiens) (UniProt P51654). The test is described as follows: Binding affinity to GPC3 in human HeLa cells assessed as increase in fluorescence (red color) measured after 4 hrs incubation by immunofluorescence staining based assay. The class given is cell-based.
The target is the same in test [6]. The experiment in a line: Binding affinity to GPC3 in human Hep3B cells assessed as increase in fluorescence (red color) by immunofluorescence staining based assay. Type of test: cell-based.
Test [7] has the same target. The test is described as follows: Binding affinity to GPC3 in human LX-2 cells assessed as increase in fluorescence (red color) measured after 4 hrs incubation by immunofluorescence staining based assay. Type of test: cell-based.
For test [8] the target is unchanged. The test is described as follows: Binding affinity to GPC3 in human Huh-7 cells assessed as increase in fluorescence (red color) by immunofluorescence staining based assay. The class given is cell-based.

We go through 9 molecules from ChEMBL document CHEMBL6182945, “MMAE-Based Peptide-Drug Conjugates Targeting GPC3 for Precision Chemoradiotherapy in Hepatocellular Carcinoma” (J Med Chem, 2025).

What is called pIC50 is −log10 of the IC50, conventionally taken in molar units.

pIC50: −log10 of the molar value. Active and inactive are the calls of the source. No cut-off for these calls is given here. Starred links: 1 amine or outer side, 2 acyl side, 3 side chain; linkers in the order of their positions; H or OH if unused. Positions of bridges follow the written chain, without caps; N, C: chain ends. Non-standard residues stand in square brackets, D forms with d. Residues, ends and D or L forms follow the SMILES beside them. Chains are numbered I, II in the order given. *: point of attachment. X2 = CC[C@H](C)[C@@H]([C@@H](CC(=O)N1CCC[C@H]1[C@H](OC)[C@@H](C)C(=O)N[C@H](C)[C@H](O)c1ccccc1)OC)N(C)[C@H](C(=O)NC(=O)[C@H](C(C)C)N(C)C(=O)OCc1ccc(NC(=O)[C@H](CCCNC(N)=O)NC(=O)[C@@H](NC(=O)CCCCCN2C(=O)CC(*)C2=O)C(C)C)cc1)C(C)C; Hexanoyl(6-succinimido-3yl) = O=C1CC([*:1])C(=O)N1CCCCCC(=O)[*:2]; Dolaproine = CO[C@@H]([C@@H]1CCCN1)[C@@H](C)C(=O)O; Dil = CC[C@H](C)[C@H](NC)[C@@H](CC(=O)O)OC; PABC = O=C(OCc1ccc(N[*:1])cc1)[*:2]; X1 = C[C@@H](N*)[C@@H](O)c1ccccc1; Cit = NC(=O)NCCC[C@H](N)C(=O)O; NMeV = CN[C@H](C(=O)O)C(C)C

Glypican-3 (Homo sapiens), sequence (P51654 25-358 limits assumed): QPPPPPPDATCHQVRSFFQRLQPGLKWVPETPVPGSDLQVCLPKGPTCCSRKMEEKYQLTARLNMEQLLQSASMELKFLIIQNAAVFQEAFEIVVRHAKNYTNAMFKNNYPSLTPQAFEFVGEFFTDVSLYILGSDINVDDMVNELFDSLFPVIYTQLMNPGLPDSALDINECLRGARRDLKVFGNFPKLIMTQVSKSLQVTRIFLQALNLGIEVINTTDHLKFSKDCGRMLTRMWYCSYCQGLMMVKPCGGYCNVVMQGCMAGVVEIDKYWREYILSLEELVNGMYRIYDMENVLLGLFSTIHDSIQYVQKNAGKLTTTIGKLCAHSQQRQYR
Glypican-3 (Homo sapiens), sequence (P51654 359-554 limits assumed): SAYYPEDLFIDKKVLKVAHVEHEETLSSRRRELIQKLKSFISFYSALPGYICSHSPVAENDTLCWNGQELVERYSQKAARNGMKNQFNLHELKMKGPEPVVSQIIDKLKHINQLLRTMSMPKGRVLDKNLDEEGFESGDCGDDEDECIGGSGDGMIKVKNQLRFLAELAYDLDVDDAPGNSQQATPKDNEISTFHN

Regarding `CC[C@H](C)[C@@H]([C@@H](CC(=O)N1CCC[C@H]1[C@H](OC)[C@@H](C)C(=O)N[C@H](C)[C@H](O)c1ccccc1)OC)N(C)[C@H](C(=O)NC(=O)[C@H](C(C)C)N(C)C(=O)OCc1ccc(NC(=O)[C@H](CCCNC(N)=O)NC(=O)[C@@H](NC(=O)CCCCCN2C(=O)CC(SC[C@H](N)C(=O)N[C@H](C(=O)N[C@@H](Cc3cnc[nH]3)C(=O)N[C@H](C(=O)N[C@@H](CO)C(=O)N3CCC[C@H]3C(=O)N[C@@H](CC(N)=O)C(=O)N[C@@H](CCC(N)=O)C(=O)NCC(=O)NCC(=O)N[C@@H](CC(C)C)C(=O)N3CCC[C@H]3C(=O)N[C@@H](CO)C(=O)O)C(C)C)[C@@H](C)O)C2=O)C(C)C)cc1)C(C)C` (stereo not given in full) (H-C(X2)THVSPNQGGLPS-OH), the pIC50 is 7.31 in test [1], less than 7.00 in test [2], less than 7.00 in test [3] and 7.40 in test [4].

Take `CC[C@H](C)[C@@H]([C@@H](CC(=O)N1CCC[C@H]1[C@H](OC)[C@@H](C)C(=O)N[C@H](C)[C@@H](O)c1ccccc1)OC)N(C)C(=O)[C@@H](NC(=O)[C@@H](NC)C(C)C)C(C)C` (H-[NMeV]V[Dil][Dolaproine]-X1): the pIC50 was 9.34 in test [1], 8.83 in test [2], 8.06 in test [3] and 8.98 in test [4].

Take `CC[C@H](C)[C@@H]([C@@H](CC(=O)N1CCC[C@H]1[C@H](OC)[C@@H](C)C(=O)N[C@H](C)[C@@H](O)c1ccccc1)OC)N(C)C(=O)[C@@H](NC(=O)[C@H](C(C)C)N(C)C(=O)OCc1ccc(NC(=O)[C@H](CCCNC(N)=O)NC(=O)[C@@H](NC(=O)CCCCCN2C(=O)CC(SC[C@H](N)C(=O)N[C@@H](CC(=O)O)C(=O)N[C@@H](Cc3ccc(O)cc3)C(=O)N[C@@H](CCC(=O)O)C(=O)N[C@@H](CCSC)C(=O)N[C@@H](Cc3cnc[nH]3)C(=O)N[C@@H](CC(C)C)C(=O)N[C@@H](Cc3c[nH]c4ccccc34)C(=O)N[C@@H](Cc3c[nH]c4ccccc34)C(=O)NCC(=O)N[C@H](C(=O)N[C@@H](CCC(=O)O)C(=O)N[C@@H](CC(C)C)C(N)=O)[C@@H](C)O)C2=O)C(C)C)cc1)C(C)C` (stereo not given in full) (I: H-CDYEMHLWWGTEL-NH2 / II: V[Cit][PABC][NMeV]V[Dil][Dolaproine]-X1; linker I:1-II:N via Hexanoyl(6-succinimido-3yl)): the pIC50 in test [1] is 7.24; in test [2], less than 7.00; in test [3] it was less than 7.00; in test [4], 7.38.

As for `CC[C@H](C)[C@@H]([C@@H](CC(=O)N1CCC[C@H]1[C@H](OC)[C@@H](C)C(=O)N[C@H](C)[C@@H](O)c1ccccc1)OC)N(C)C(=O)[C@@H](NC(=O)[C@H](C(C)C)N(C)C(=O)OCc1ccc(NC(=O)[C@H](CCCNC(N)=O)NC(=O)[C@@H](NC(=O)CCCCCN2C(=O)CC(SC[C@H](NC(=O)CCCCC[N+]3=C(/C=C/C=C/C=C4\N(C)c5ccc6ccccc6c5C4(C)C)C(C)(C)c4c3ccc3ccccc43)C(=O)N[C@@H](CO)C(=O)N[C@@H](CC(N)=O)C(=O)N[C@@H](CC(=O)O)C(=O)N[C@@H](CCCNC(=N)N)C(=O)N3CCC[C@@H]3C(=O)N3CCC[C@@H]3C(=O)N[C@@H](CC(N)=O)C(=O)N[C@H](C(=O)N[C@@H](CC(C)C)C(=O)N[C@@H](CCC(N)=O)C(=O)N[C@@H](CCCCN)C(=O)N[C@@H](CCCNC(=N)N)C(N)=O)[C@@H](C)CC)C2=O)C(C)C)cc1)C(C)C` (stereo not given in full), the result in test [5], in test [6], in test [7] and in test [8] was Active.

As for `CC[C@H](C)[C@@H]([C@@H](CC(=O)N1CCC[C@H]1[C@H](OC)[C@@H](C)C(=O)N[C@H](C)[C@@H](O)c1ccccc1)OC)N(C)C(=O)[C@@H](NC(=O)[C@H](C(C)C)N(C)C(=O)OCc1ccc(NC(=O)[C@H](CCCNC(N)=O)NC(=O)[C@@H](NC(=O)CCCCCN2C(=O)CC(SC[C@H](N)C(=O)N[C@@H](CC(=O)O)C(=O)N[C@@H](Cc3cnc[nH]3)C(=O)N[C@@H](CC(C)C)C(=O)N[C@@H](C)C(=O)N[C@@H](CO)C(=O)N[C@@H](CC(C)C)C(=O)N[C@@H](Cc3c[nH]c4ccccc34)C(=O)N[C@@H](Cc3c[nH]c4ccccc34)C(=O)NCC(=O)N[C@H](C(=O)N[C@@H](CCC(=O)O)C(=O)N[C@@H](CC(C)C)C(N)=O)[C@@H](C)O)C2=O)C(C)C)cc1)C(C)C` (stereo not given in full) (I: H-CDHLASLWWGTEL-NH2 / II: V[Cit][PABC][NMeV]V[Dil][Dolaproine]-X1; linker I:1-II:N via Hexanoyl(6-succinimido-3yl)), the pIC50 in test [1], in test [2], in test [3] and in test [4] was less than 7.00 throughout.

Consider `CC[C@H](C)[C@@H]([C@@H](CC(=O)N1CCC[C@H]1[C@H](OC)[C@@H](C)C(=O)N[C@H](C)[C@@H](O)c1ccccc1)OC)N(C)C(=O)[C@@H](NC(=O)[C@H](C(C)C)N(C)C(=O)OCc1ccc(NC(=O)[C@H](CCCNC(N)=O)NC(=O)[C@@H](NC(=O)CCCCCN2C(=O)CC(SC[C@H](N)C(=O)N[C@@H](CCCNC(=N)N)C(=O)N[C@@H](CC(C)C)C(=O)N[C@@H](CC(N)=O)C(=O)N[C@H](C(=O)NCC(=O)NCC(=O)N[C@H](C(=O)N[C@@H](Cc3ccc(O)cc3)C(=O)N[C@@H](Cc3ccccc3)C(=O)N[C@@H](CC(C)C)C(=O)N[C@H](C(=O)N[C@H](C(=O)N[C@@H](CCCNC(=N)N)C(=O)N[C@@H](CCC(N)=O)C(N)=O)[C@@H](C)O)[C@@H](C)O)[C@@H](C)O)C(C)C)C2=O)C(C)C)cc1)C(C)C` (stereo not given in full) (I: H-CRLNVGGTYFLTTRQ-NH2 / II: V[Cit][PABC][NMeV]V[Dil][Dolaproine]-X1; linker I:1-II:N via Hexanoyl(6-succinimido-3yl)), for which the pIC50 in test [1] was 7.51; in test [2], 7.15; in test [3], 7.09; in test [4], 7.17.

Regarding `CC[C@H](C)[C@@H]([C@@H](CC(=O)N1CCC[C@H]1[C@H](OC)[C@@H](C)C(=O)N[C@H](C)[C@@H](O)c1ccccc1)OC)N(C)C(=O)[C@@H](NC(=O)[C@H](C(C)C)N(C)C(=O)OCc1ccc(NC(=O)[C@H](CCCNC(N)=O)NC(=O)[C@@H](NC(=O)CCCCCN2C(=O)CC(SC[C@H](N)C(=O)N[C@@H](Cc3ccc(O)cc3)C(=O)N[C@@H](Cc3ccccc3)C(=O)N[C@@H](CC(C)C)C(=O)N[C@H](C(=O)N[C@H](C(=O)N[C@@H](CCCNC(=N)N)C(=O)N[C@@H](CCC(N)=O)C(N)=O)[C@@H](C)O)[C@@H](C)O)C2=O)C(C)C)cc1)C(C)C` (stereo not given in full) (I: H-CYFLTTRQ-NH2 / II: V[Cit][PABC][NMeV]V[Dil][Dolaproine]-X1; linker I:1-II:N via Hexanoyl(6-succinimido-3yl)), the pIC50 was less than 7.00 in test [1], less than 7.00 in test [2], less than 7.00 in test [3] and 7.51 in test [4].

Turning to `CC[C@H](C)[C@@H]([C@@H](CC(=O)N1CCC[C@H]1[C@H](OC)[C@@H](C)C(=O)N[C@H](C)[C@@H](O)c1ccccc1)OC)N(C)C(=O)[C@@H](NC(=O)[C@H](C(C)C)N(C)C(=O)OCc1ccc(NC(=O)[C@H](CCCNC(N)=O)NC(=O)[C@H](NC(=O)CCCCCN2C(=O)CC(SC[C@H](NC(=O)CCCCC[N+]3=C(/C=C/C=C/C=C4\N(C)c5ccc6ccccc6c5C4(C)C)C(C)(C)c4c3ccc3ccccc43)C(=O)N[C@@H](CC(=O)O)C(=O)N[C@@H](Cc3ccc(O)cc3)C(=O)N[C@@H](CCC(=O)O)C(=O)N[C@@H](CCSC)C(=O)N[C@@H](Cc3cnc[nH]3)C(=O)N[C@@H](CC(C)C)C(=O)N[C@@H](Cc3c[nH]c4ccccc34)C(=O)N[C@@H](Cc3c[nH]c4ccccc34)C(=O)NCC(=O)N[C@H](C(=O)N[C@@H](CCC(=O)O)C(=O)N[C@@H](CC(C)C)C(N)=O)[C@H](C)O)C2=O)C(C)C)cc1)C(C)C` (stereo not given in full), the Activity result in test [5] and in test [6] was “Active; Compound Showed Minimal Binding” throughout. In test [7], the result was Active.

Consider `CC[C@H](C)[C@@H]([C@@H](CC(=O)N1CCC[C@H]1[C@H](OC)[C@@H](C)C(=O)N[C@H](C)[C@@H](O)c1ccccc1)OC)N(C)C(=O)[C@@H](NC(=O)[C@H](C(C)C)N(C)C(=O)OCc1ccc(NC(=O)[C@H](CCCNC(N)=O)NC(=O)[C@@H](NC(=O)CCCCCN2C(=O)CC(SC[C@H](N)C(=O)N[C@@H](C)C(=O)N[C@@H](CC(C)C)C(=O)N[C@@H](CC(C)C)C(=O)N[C@@H](C)C(=O)N[C@@H](CC(N)=O)C(=O)N[C@@H](Cc3cnc[nH]3)C(=O)N[C@@H](CCC(=O)O)C(=O)N[C@@H](CCC(=O)O)C(=O)N[C@@H](CC(C)C)C(=O)N[C@@H](Cc3ccccc3)C(=O)N[C@@H](CCC(N)=O)C(=O)N[C@H](C(N)=O)[C@@H](C)O)C2=O)C(C)C)cc1)C(C)C` (stereo not given in full) (I: H-CALLANHEELFQT-NH2 / II: V[Cit][PABC][NMeV]V[Dil][Dolaproine]-X1; linker I:1-II:N via Hexanoyl(6-succinimido-3yl)), for which the pIC50 in test [1] is less than 7.00; in test [2], less than 7.00; in test [3] it was less than 7.00; in test [4], 7.09.
